Measured values as given in patent USRE35321E, “Tetrazoleacetic acid derivatives having aldose reductase inhibitory activity” (Wakamoto Pharmaceutical Co., Ltd., priority 1990, dated 1996).

Tests used:
aldose reductase = target: T1, aldose reductase (Rattus norvegicus, UniProt P07943); assay: Aldose reductase inhibitory effect (enzyme from crystalline lenses, DL-glyceraldehyde substrate); format: biochemical, rat (male SD); conditions: 10 mM DL-glyceraldehyde, pH 6.2, 30° C.
T1 construct: Then their crystalline lenses were immediately removed and stored at -80° C; The lenses were homogenized; from tissue; host or cells: crystalline lenses of six-week-old male SD rats
Protocol: Six-weeks-old male SD rates were anesthetized with ether and killed. Then their crystalline lenses were immediately removed and stored at -80° C. […] All operations were conducted at 4° C. and the enzyme solution was stored at -80° C.
More specifically, 0.1 ml of DL glyceraldehyde (final concentration: 10 mM) was added to 0.9 ml of 100 mM sodium potassium phosphate buffer (pH 6.2) which contained lithium sulfate (final concentration: 400 mM), reduced nicotinamide adenine dinucleotide phosphate (final concentration: 0.15 mM), the enzyme solution, and the compound to be evaluated (final concentration: 10^-6 M, 10^-7 M or […]), and then the reaction was conducted at 30° C. for 5 minutes. During the reaction, the change in the absorbance at 340 nm with time was monitored. The maximum reducing rate of the absorbance (U) during the reaction was determined. By subtracting, from this value, the maximum reducing rate (Uo) at 340 nm of the reaction solution before the addition of the substrate (DL-glyceraldehyde), the reaction rate (V=U-Uo) was calculated as a true reaction rate in the presence of the compound to be tested.
The same procedure was repeated except for the absence of the compound to be tested. A true reaction rate (Vo) in case the enzyme was not inhibited was calculated (Vo =U'-Uo '). The aldose reductase inhibitory activity of the test compounds was determined according to the following formula:
Rate of Inhibition (%)=(Vo -V)/Vo ×100

[1] = system: accumulation of sorbitol in sciatic nerve; assay: Inhibiting the accumulation of sorbitol in sciatic nerve of streptozotocin diabetic rats; format: in vivo, Sprague-Dawley male rats; conditions: twice a day for 5 days
Protocol: Groups of 6 to 8-weeks-old Sprague-Dawley male rats (4 aminals per group) were fasted for 18 hours and streptozotocin was injected through the tail vein in a dose of 60 mg/kg to thus obtain diabetic rats. Immediately after the administration of the streptozotocin, each compound to be tested was orally administered to these rats in the form of a suspension at a dose of 10 mg/kg, 30 mg/kg and 50 mg/kg (each was suspended in a 0.5% sodium carboxymethyl cellulose solution) twice a day (9 o'clock in the morning and 5 o'clock in the afternoon) for 5 days. During the test, the rats took diet and drank water freely. 4 Hours after the final administration of the drug in the 5th day's morning (9 o'clock in the morning), the rats were sacrificed and then the sciatic nerve thereof was removed to determine the amount of sorbitol accumulated therein.
The results are expressed in the percentage obtained while the value obtained on the control to which any drug was not administered is defined to be 100.

SMILES | IC50 (aldose reductase) [nM] | other results
COC(=O)Cn1nnnc1-c1ccsc1 [Example 1-5, methyl [5-(3-thienyl)tetrazol-1-yl] acetate] | 960 | 
COC(=O)Cn1nnnc1-c1ccoc1 [Example 1-7, methyl (5-(3-furyl)tetrazol-1-yl] acetate] | 740 | 
COC(=O)Cn1nnnc1-c1sccc1NS(=O)(=O)c1ccccc1 [Example 1-27, methyl [5-(3-phenylsulfonylamino-2-thienyl)tetrazol-1-yl acetate] | 230 | 
O=C(O)Cn1nnnc1-c1cccs1 [Example 2-1, [5-(2-thienyl)tetrazol-1-yl] acetic acid] | 16 | Rate of Inhibition of Sorbitol Accumulation ([1]; 10 mg/kg oral): 68%; Rate of Inhibition of Sorbitol Accumulation ([1]; 30 mg/kg oral): 89%
Cc1ccsc1-c1nnnn1CC(=O)O [Example 2-2, [5-(3-methyl-2-thienyl)tetrazol-1-yl] acetic acid] | 18 | Rate of Inhibition of Sorbitol Accumulation ([1]; 10 mg/kg oral): 62%; Rate of Inhibition of Sorbitol Accumulation ([1]; 30 mg/kg oral): 93%
Cc1csc(-c2nnnn2CC(=O)O)c1 [Example 2-3, [5-(4-methyl-2-thienyl)tetrazol-1-yl] acetic acid] | 24 | 
Cc1ccc(-c2nnnn2CC(=O)O)s1 [Example 2-4, [5-(5-methyl-2-thienyl)tetrazol-1-yl] acetic acid] | 23 | 
O=C(O)Cn1nnnc1-c1ccco1 [Example 2-6, [5-(2-furyl)tetrazol-1-yl] acetic acid] | 60 | 
CCc1ccc(-c2nnnn2CC(=O)O)s1 [Example 2-8, [5-(5-ethyl-2-thienyl)tetrazol-1-yl] acetic acid] | 21 | 
O=C(O)Cn1nnnc1-c1ccc(Cc2ccccc2)s1 [Example 2-9, [5-(5-benzyl-2-thienyl)tetrazol-1-yl] acetic acid] | 20 | 
CSc1ccc(-c2nnnn2CC(=O)O)s1 [Example 2-10] | 20 | 
O=C(O)Cn1nnnc1-c1ccc(Br)s1 [Example 2-11, [5-(5-bromo-1-thienyl)tetrazol-1-yl] acetic acid] | 19 | 
Cc1sccc1-c1nnnn1CC(=O)O [Example 2-12, [5-(2-methyl-3-thienyl)tetrazol-1-yl] acetic acid] | 10 | 
O=C(O)Cn1nnnc1-c1ccc(CBr)s1 [Example 2-13, [5-(5-bromomethyl-2-thienyl)tetrazol-1-yl] acetic acid] | 25 | 
O=C(O)Cn1nnnc1-c1ccc(-c2ccccc2)s1 [Example 2-14, [5-(5-phenyl-2-thienyl)tetrazol-1-yl] acetic acid] | 21 | 
COc1ccsc1-c1nnnn1CC(=O)O [Example 2-15, [5-(3-methoxy-2-thienyl)tetrazol-1-yl] acetic acid] | 29 | 
CCCCOc1ccsc1-c1nnnn1CC(=O)O [Example 2-16, [5-(3-butoxy-2-thienyl)tetrazol-1-yl] acetic acid] | 31 | 
CC(=O)Nc1ccsc1-c1nnnn1CC(=O)O [Example 2-17] | 28 | 
CCCC(=O)Nc1ccsc1-c1nnnn1CC(=O)O [Example 2-18, [5-(3-propylcarbonylamino-2-thienyl)tetrazol-1-yl] acetic acid] | 20 | 
O=C(O)Cn1nnnc1-c1sccc1NC(=O)CCc1ccccc1 [Example 2-19, [5-(3-phenethylcarbonylamino-2-thienyl)tetrazol-1-yl] acetic acid] | 24 | 
CCCCc1ccc(-c2nnnn2CC(=O)O)s1 [Example 2-20, [5-(5-butyl-2-thienyl)tetrazol-1-yl] acetic acid] | 23 | 
O=C(O)Cn1nnnc1-c1ccc(CCCc2ccccc2)s1 [Example 2-21, [5-(5-phenylpropyl-2-thienyl)tetrazol-1-yl] acetate acid] | 28 | 
COCc1ccc(-c2nnnn2CC(=O)O)s1 [Example 2-22, [5-(5-methoxymethyl-2-thienyl)tetrazol-1-yl] acetic acid] | 31 | 
CCCCOCc1ccc(-c2nnnn2CC(=O)O)s1 [Example 2-23, [5-(5-butoxymethyl-2-thienyl)tetrazol-1-yl] acetic acid] | 25 | 

SMILES | IC50 (aldose reductase) [nM] | other results
O=C(O)Cn1nnnc1-c1ccsc1Br [Example 2-24, [5-(2-bromo-3-thienyl)tetrazol-1-yl] acetic acid] | 38 | 
CSc1sccc1-c1nnnn1CC(=O)O [Example 2-26, [5-(2-methylthio-3-thienyl)tetrazol-1-yl] acetic acid] | 31 | 
Cc1ccc(-c2nnnn2CC(=O)O)o1 [Example 2-27, [5-(5-methyl-2-furyl)tetrazol-1-yl] acetic acid] | 150 | 
CCCCc1ccc(-c2nnnn2CC(=O)O)o1 [Example 2-28, [5-(5-butyl-2-furyl)tetrazol1-yl-] acetic acid] | 130 | 
O=C(O)Cn1nnnc1-c1ccc(Br)o1 [Example 2-29, [5-(5-bromo-2-furyl)tetrazol-1-yl] acetic acid] | 160 | 
CSc1ccc(-c2nnnn2CC(=O)O)o1 [Example 2-30, [5-(5-methylthio-2-furyl)tetrazol-1-yl] acetic acid] | 110 | 
O=C(O)Cn1nnnc1-c1ccoc1Br [Example 2-31, [5-(2-bromo-3-furyl)tetrazol-1-yl] scetic acid] | 85 | 
CSc1occc1-c1nnnn1CC(=O)O [Example 2-32, [5-(2-methylthio-3-furyl)tetrazol-1-yl] acetic acid] | 35 | 
O=C(O)Cn1nnnc1-c1ccsc1Sc1ccccc1 [Example 2-33, [5-(2-phenylthio-3-thienyl)tetrazol-1-yl] acetic acid] | 24 | 
O=C(O)Cn1nnnc1-c1ccc(Sc2ccccc2)s1 [Example 2-34, [5-(5-phenylthio-2-thienyl)tetrazol-1-yl] acetic acid] | 26 | 
CCN(CC)S(=O)(=O)c1ccc(-c2nnnn2CC(=O)O)s1 [Example 2-35, [5-[5-(N,N-diethylaminosulfonyl)-2-thienyl]tetrazol-1-yl] acetic acid] | 390 | 
CCCCN(CCCC)S(=O)(=O)c1ccc(-c2nnnn2CC(=O)O)s1 [Example 2-36] | 85 | 
O=C(O)Cn1nnnc1-c1ccc(S(=O)(=O)N2CCCCC2)s1 [Example 2-37, [5-(5-piperidinosulfonyl2-thienyl)tetrazol-1-yl] acetic acid] | 230 | 
CCN(CC)S(=O)(=O)c1sccc1-c1nnnn1CC(=O)O [Example 2-38, [5-[2-(N,N-diethylaminosulfonyl)-3-thienyl)tetrazol-1-yl] acetic acid] | 460 | 
CS(=O)(=O)Nc1ccsc1-c1nnnn1CC(=O)O [Example 2-39, [5-(3-methylsulfonylamino-2-thienyl)tetrazol-1-yl] acetic acid] | 28 | 
CCCCS(=O)(=O)Nc1ccsc1-c1nnnn1CC(=O)O [Example 2-40, [5-(3-butylsulfonylamino-2-thienyl)tetrazol-1-yl] acetic acid] | 16 | 
O=C(O)Cn1nnnc1-c1sccc1NS(=O)(=O)c1ccccc1 [Example 2-41, [5-(3-phenylsulfonylamino-2-thienyl)tetrazol-1-yl] acetic acid] | 23 | 
O=C(O)Cn1nnnc1-c1sccc1O [Example 2-42, [5-(3-hydroxy-2-thienyl)tetrazol-1-yl] acetic acid] | 20 | 
C[S+]([O-])c1sccc1-c1nnnn1CC(=O)O (stereo not drawn) [Example 2-43, [5-(2-methylsulfinyl-3-thienyl)tetrazol-1-yl] acetic acid] | 300 | 
CS(=O)(=O)c1sccc1-c1nnnn1CC(=O)O [Example 2-44, [5-(2-methylsulfonyl-3-thienyl)tetrazol-1-yl] acetic acid] | 520 | 
CCOC(=O)Cn1nnnc1-c1ccsc1 [Example 3-2, ethyl [5-(3-thienyl)tetrazol-1-yl] acetate] | 580 | 
CCCCc1ccc(-c2nnnn2CC(=O)OC)s1 [Example 3-5, methyl [5-(5-butyl-2-thienyl)tetrazol-1-yl] acetate] | 180 | 
COC(=O)Cn1nnnc1-c1ccsc1SC [Example 3-11, methyl [5-(2-methylthio-3-thienyl)tetrazol-1-yl] acetate] | 380 | 
CC(/C=C1\SC(=S)N(CC(=O)O)C1=O)=C\c1ccccc1 [ONO-2235, (E)-3-carboxymethyl-5-[(2E)-methyl-3-phenylpropenylidene] rhodan, reference compound] |  | Rate of Inhibition of Sorbitol Accumulation ([1]; 10 mg/kg oral): 0%; Rate of Inhibition of Sorbitol Accumulation ([1]; 30 mg/kg oral): 0%; Rate of Inhibition of Sorbitol Accumulation ([1]; 50 mg/kg oral): 40%
